The NIST ThermoML archive (doi:10.1016/j.fluid.2010.01.027)
Numbers after ± are expanded uncertainties.

Settings: for mass density: Vibrating tube method

FC(F)(F)C(F)(F)C(F)(F)C(F)(F)F [decafluorobutane]
speed of sound [m/s], Gas, sonar gas analyzer
Settings | 10 kPa | 20 kPa | 30 kPa | 50 kPa | 70 kPa | 100 kPa | 150 kPa | 200 kPa | 250 kPa | 300 kPa
248.7 K | 95.1 ± 1.2 | 94.56 ± 1.2 | 93.98 ± 1.2 | – | – | – | – | – | – | –
257.7 K | 96.57 ± 1.2 | 96.22 ± 1.2 | 95.7 ± 1.2 | 94.78 ± 1.2 | – | – | – | – | – | –
271.3 K | 99.26 ± 1.2 | 98.71 ± 1.2 | 98.33 ± 1.2 | 97.39 ± 1.2 | 96.39 ± 1.2 | 94.79 ± 1.2 | – | – | – | –
281.5 K | 101.05 ± 1.2 | 100.64 ± 1.2 | 100.23 ± 1.2 | 99.38 ± 1.2 | 98.4 ± 1.2 | 97.04 ± 1.2 | 95.08 ± 1.2 | – | – | –
293.1 K | 103.02 ± 1.2 | 102.7 ± 1.2 | 102.37 ± 1.2 | 101.71 ± 1.2 | 100.86 ± 1.2 | 99.66 ± 1.2 | 97.68 ± 1.2 | 95.63 ± 1.2 | – | –
303.1 K | 104.78 ± 1.2 | 104.57 ± 1.2 | 104.25 ± 1.2 | 103.35 ± 1.2 | 103.06 ± 1.2 | 103.05 ± 1.2 | 99.91 ± 1.2 | 98.41 ± 1.2 | 96.5 ± 1.2 | 94.89 ± 1.2

FC(F)(F)C(F)(F)C(F)(F)C(F)(F)C(F)(F)C(F)(F)C(F)(F)F [hexadecafluoroheptane]
101.33 kPa, Liquid
Settings | mass density [kg/m3]
278.15 K | 1769.3 ± 1
288.15 K | 1751 ± 1
298.15 K | 1728.4 ± 0.9
308.15 K | 1700.8 ± 0.9
318.15 K | 1672.7 ± 0.9
328.15 K | 1641.9 ± 0.9
333.15 K | 1629.4 ± 0.8

101.33 kPa, Liquid, sound analyzer
Settings | speed of sound [m/s]
278.15 K | 608.3 ± 1.3
288.15 K | 578.42 ± 1.3
298.15 K | 548.73 ± 1.3
308.15 K | 517.47 ± 1.3
318.15 K | 500.56 ± 1.3
328.15 K | 470.6 ± 1.3
333.15 K | 457.24 ± 1.3

FC(F)(F)C(F)(F)C(F)(F)C(F)(F)C(F)(F)C(F)(F)C(F)(F)C(F)(F)F [octadecafluorooctane]
101.33 kPa, Liquid
Settings | mass density [kg/m3]
278.15 K | 1810 ± 1
288.15 K | 1786.7 ± 1
298.15 K | 1760.6 ± 1
308.15 K | 1735 ± 1
318.15 K | 1708.6 ± 0.9
328.15 K | 1681.6 ± 0.9
338.15 K | 1656.4 ± 0.9

101.33 kPa, Liquid, sound analyzer
Settings | speed of sound [m/s]
278.15 K | 640.32 ± 1.3
288.15 K | 610.05 ± 1.3
298.15 K | 581.94 ± 1.3
308.15 K | 552.33 ± 1.3
318.15 K | 524.1 ± 1.3
328.15 K | 508.43 ± 1.3
338.15 K | 479.24 ± 1.3

FC(F)(F)C(F)(F)C(F)(F)F [octafluoropropane]
speed of sound [m/s], Gas, sonar gas analyzer
Settings | 248.2 K | 259.8 K | 270.2 K | 272.6 K | 283.2 K | 296.1 K | 303.9 K
10 kPa | 107.9 ± 1.2 | – | 112.31 ± 1.2 | – | – | – | 119.13 ± 1.2
20 kPa | 107.6 ± 1.2 | 110 ± 1.2 | 111.99 ± 1.2 | – | 114.63 ± 1.2 | – | 118.98 ± 1.2
30 kPa | 107.25 ± 1.2 | 109.59 ± 1.2 | 111.77 ± 1.2 | – | 114.12 ± 1.2 | – | 118.79 ± 1.2
50 kPa | 106.56 ± 1.2 | 108.88 ± 1.2 | 111.27 ± 1.2 | – | 113.84 ± 1.2 | 116.81 ± 1.2 | 118.42 ± 1.2
70 kPa | 105.77 ± 1.2 | 108.23 ± 1.2 | 110.9 ± 1.2 | – | 113.1 ± 1.2 | 116.31 ± 1.2 | 118.04 ± 1.2
100 kPa | 104.62 ± 1.2 | 107.27 ± 1.2 | – | 110.29 ± 1.2 | 112.46 ± 1.2 | 115.55 ± 1.2 | 117.43 ± 1.2
150 kPa | 102.76 ± 1.2 | 105.51 ± 1.2 | – | 108.59 ± 1.2 | 111.28 ± 1.2 | 114.42 ± 1.2 | 116.26 ± 1.2
200 kPa | – | 103.72 ± 1.2 | – | 106.9 ± 1.2 | 109.88 ± 1.2 | 113.23 ± 1.2 | 115.36 ± 1.2
250 kPa | – | 101.83 ± 1.2 | – | 105.22 ± 1.2 | 108.56 ± 1.2 | 111.94 ± 1.2 | 114.31 ± 1.2
300 kPa | – | – | – | 103.59 ± 1.2 | 107.1 ± 1.2 | 110.7 ± 1.2 | 113.14 ± 1.2
350 kPa | – | – | – | 101.9 ± 1.2 | 105.61 ± 1.2 | 109.43 ± 1.2 | 112 ± 1.2
400 kPa | – | – | – | 100.27 ± 1.2 | 103.99 ± 1.2 | 108.12 ± 1.2 | 110.63 ± 1.2

FC(F)(F)C(F)(F)C(F)(F)C(F)(F)C(F)(F)C(F)(F)F [perfluorohexane]
101.33 kPa, Liquid
Settings | mass density [kg/m3]
278.15 K | 1739.8 ± 1
288.15 K | 1712.7 ± 0.9
298.15 K | 1682.8 ± 0.9
308.15 K | 1651.9 ± 0.9

101.33 kPa, Liquid, sound analyzer
Settings | speed of sound [m/s]
278.15 K | 571.89 ± 1.3
288.15 K | 540.31 ± 1.3
298.15 K | 510.7 ± 1.3
